Measurements taken from US20260053834A1, “COVALENT MODIFIERS OF AKT1 AND USES THEREOF” (Terremoto Biosciences, Inc., priority 2023, published 2026).
Where two headings read alike, the source gives them in different places.

Columns and labels:
AKT1 WT = biological target: T1, AKT1 WT (Homo sapiens, UniProt P31749); test: Live cell target engagement by NanoBRET competitive probe displacement, AKT1 WT; format: binding; conditions: transfected HEK293 cells, 2 h at 37° C., read-out: AKT1 WT IC50: GeoMean IC50
T1 construct: expressed in transfected cells; host or cells: HEK293
T1 sequence (P31749 whole entry): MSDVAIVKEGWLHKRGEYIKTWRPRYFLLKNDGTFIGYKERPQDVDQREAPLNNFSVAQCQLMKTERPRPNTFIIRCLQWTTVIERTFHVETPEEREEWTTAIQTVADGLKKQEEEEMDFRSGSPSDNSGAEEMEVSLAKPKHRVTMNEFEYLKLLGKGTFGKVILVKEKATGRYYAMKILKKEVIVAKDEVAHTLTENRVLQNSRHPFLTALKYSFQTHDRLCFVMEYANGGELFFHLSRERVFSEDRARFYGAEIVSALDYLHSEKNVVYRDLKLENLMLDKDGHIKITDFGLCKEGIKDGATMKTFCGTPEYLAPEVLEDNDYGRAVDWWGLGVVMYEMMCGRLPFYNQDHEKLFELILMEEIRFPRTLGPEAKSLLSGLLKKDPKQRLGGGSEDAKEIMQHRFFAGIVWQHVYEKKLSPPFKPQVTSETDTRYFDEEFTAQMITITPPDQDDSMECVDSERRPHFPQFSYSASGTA

AKT2 = biological target: T2, AKT2 (Homo sapiens, UniProt P31751); test: Live cell target engagement by NanoBRET competitive probe displacement, AKT2; format: binding; conditions: transfected HEK293 cells, 2 h at 37° C., read-out: AKT2 IC50: GeoMean IC50
T2 construct: expressed in transfected cells; host or cells: HEK293
T2 sequence (P31751 whole entry): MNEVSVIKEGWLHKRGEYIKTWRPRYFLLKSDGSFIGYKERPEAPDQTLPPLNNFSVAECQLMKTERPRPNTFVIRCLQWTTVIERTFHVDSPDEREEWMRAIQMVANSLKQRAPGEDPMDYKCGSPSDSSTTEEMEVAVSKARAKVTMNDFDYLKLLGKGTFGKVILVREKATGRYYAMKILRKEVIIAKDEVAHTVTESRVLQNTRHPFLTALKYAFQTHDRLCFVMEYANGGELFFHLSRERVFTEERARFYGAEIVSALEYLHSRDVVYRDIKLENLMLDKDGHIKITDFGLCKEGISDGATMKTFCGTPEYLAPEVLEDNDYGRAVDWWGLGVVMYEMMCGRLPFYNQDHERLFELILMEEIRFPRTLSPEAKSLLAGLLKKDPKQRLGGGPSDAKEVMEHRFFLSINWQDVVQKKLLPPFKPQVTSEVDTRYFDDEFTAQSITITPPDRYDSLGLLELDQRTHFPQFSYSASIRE

[1] = test system: LAPC4 prostate cancer cells, which express the AKT1 E17K allele; test: Antiproliferative effects in LAPC4 cells (CellTiter Glo, 72 h); format: cell-based; conditions: read-out: LAPC4 proliferation IC50: GeoMean IC50
Summary of the method: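 Cells grown in IMDM with 12% FBS, seeded at 1,000 cells/well and treated with compound dilutions in DMSO for 72 h. Intracellular ATP read by luminescence. IC50 from a log(inhibitor) vs. response Hill fit.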

AKT1 E17K = biological target: T3, AKT1 E17K (Homo sapiens, UniProt P31749, E17K); test: Live cell target engagement by NanoBRET competitive probe displacement, AKT1 E17K; format: binding; conditions: transfected HEK293 cells, 2 h at 37° C., read-out: AKT1 E17K IC50: GeoMean IC50
T3 construct: expressed in transfected cells; host or cells: HEK293
T3 sequence (P31749 whole entry E17K): as the sequence (P31749 whole entry) above, with E17K counted along it

SMILES	IC50 (AKT1 WT) [nM]	IC50 (AKT2) [nM]	IC50 ([1]; Homo sapiens, LAPC4, 72 h) [nM]	IC50 (AKT1 E17K) [nM]	IC50 [1] [nM]
Nc1ncccc1-c1nc2ccc(-n3cccn3)nc2n1-c1cc(F)c2c(c1)CC[C@@H]2NC(=O)c1ccc(O)c(C=O)c1 [Example 189, N-[(1S)-5-[2-(2-aminopyridin-3-yl)-5-(pyrazol-1-yl)imidazo[4,5-b]pyridin-3-yl]-7-fluoro-2,3-dihydro-1H-inden-1-yl]-3-formyl-4-hydroxybenzamide]	100 to 2000	≥ 2000	≥ 2000	100 to 2000	–
Nc1ncccc1-c1nc2ccc(-n3cccn3)nc2n1-c1ccc2c(c1)CC[C@@H]2Nc1n[nH]c2c(C=O)cccc12 [Example 148, 3-{[(1S)-5-[2-(2-aminopyridin-3-yl)-5-(pyrazol-1-yl)imidazo[4,5-b]pyridin-3-yl]-2,3-dihydro-1H-inden-1-yl]amino}-1H-indazole-7-carbaldehyde]	100 to 2000	100 to 2000	100 to 2000	10 to 100	–
Nc1ncccc1-c1nc2ccc(-c3ccccc3)nc2n1-c1ccc2c(c1)CC[C@@H]2NC(=O)c1cc(C=O)c(O)cc1F [Example 16, N-[(1S)-5-[2-(2-aminopyridin-3-yl)-5-phenylimidazo[4,5-b]pyridin-3-yl]-2,3-dihydro-1H-inden-1-yl]-2-fluoro-5-formyl-4-hydroxybenzamide]	10 to 100	10 to 100	100 to 2000	10 to 100	–
Nc1ncccc1-c1nc2c(F)cc(-n3cccn3)nc2n1-c1ccc2c(c1)CC[C@@H]2NC(=O)c1ccc(O)c(C=O)c1 [Example 213, N-[(1S)-5-[2-(2-aminopyridin-3-yl)-7-fluoro-5-(pyrazol-1-yl)imidazo[4,5-b]pyridin-3-yl]-2,3-dihydro-1H-inden-1-yl]-3-formyl-4-hydroxybenzamide]	10 to 100	100 to 2000	100 to 2000	10 to 100	–
Cc1cnc(-c2ccc3nc(-c4cccnc4N)n(-c4ccc5c(c4)CC[C@@H]5NC(=O)c4cc(C=O)c(O)c(F)c4F)c3n2)s1 [Example 186, N-[(1S)-5-[2-(2-aminopyridin-3-yl)-5-(5-methyl-1,3-thiazol-2-yl)imidazo[4,5-b]pyridin-3-yl]-2,3-dihydro-1H-inden-1-yl]-2,3-difluoro-5-formyl-4-hydroxybenzamide]	10 to 100	100 to 2000	10 to 100	10 to 100	–
Nc1ncccc1-c1nc2ccc(-n3cccn3)nc2n1-c1ccc2c(c1)CC(F)[C@@H]2NC(=O)c1ccc(O)c(C=O)c1 (single isomer, unassigned) [Example 256, N-[(1R,2R*)-5-[2-(2-aminopyridin-3-yl)-5-(pyrazol-1-yl)imidazo[4,5-b]pyridin-3-yl]-2-fluoro-2,3-dihydro-1H-inden-1-yl]-3-formyl-4-hydroxybenzamide]	10 to 100	100 to 2000	–	10 to 100	10 to 100
CSc1ccn(-c2ccc3nc(-c4cccnc4N)n(-c4ccc5c(c4)CC[C@@H]5NC(=O)c4ccc(O)c(C=O)c4)c3n2)n1 [Example 124, N-[(1S)-5-[2-(2-aminopyridin-3-yl)-5-[3-(methylsulfanyl)pyrazol-1-yl]imidazo[4,5-b]pyridin-3-yl]-2,3-dihydro-1H-inden-1-yl]-3-formyl-4-hydroxybenzamide]	10 to 100	100 to 2000	10 to 100	10 to 100	–
Nc1ncccc1-c1nc2ccc(-n3cccn3)nc2n1-c1ccc2c(c1)CC[C@@H]2n1cnc2cc(O)c(C=O)cc2c1=O [Example 184, 3-[(1S)-5-[2-(2-aminopyridin-3-yl)-5-(pyrazol-1-yl)imidazo[4,5-b]pyridin-3-yl]-2,3-dihydro-1H-inden-1-yl]-7-hydroxy-4-oxoquinazoline-6-carbaldehyde]	10 to 100	100 to 2000	10 to 100	10 to 100	–
Nc1ncccc1-c1nc2ccc(-c3cnccn3)nc2n1-c1ccc2c(c1)CC[C@@H]2NC(=O)c1cc(C=O)c(O)c(F)c1F [Example 103, N-[(1S)-5-[2-(2-aminopyridin-3-yl)-5-(pyrazin-2-yl)imidazo[4,5-b]pyridin-3-yl]-2,3-dihydro-1H-inden-1-yl]-2,3-difluoro-5-formyl-4-hydroxybenzamide]	10 to 100	100 to 2000	10 to 100	10 to 100	–

Second part, the compound after the results:

IC50 (AKT1 WT) [nM]	IC50 (AKT2) [nM]	IC50 ([1]; Homo sapiens, LAPC4, 72 h) [nM]	IC50 (AKT1 E17K) [nM]	IC50 [1] [nM]	SMILES
10 to 100	100 to 2000	10 to 100	10 to 100	–	CS(=O)(=O)Nc1ccc(C(=O)N[C@H]2CCc3cc(-n4c(-c5cccnc5N)nc5ccc(-n6cccn6)nc54)ccc32)cc1C=O [Example 86, N-[(1S)-5-[2-(2-aminopyridin-3-yl)-5-(pyrazol-1-yl)imidazo[4,5-b]pyridin-3-yl]-2,3-dihydro-1H-inden-1-yl]-3-formyl-4-methanesulfonamidobenzamide]
10 to 100	100 to 2000	10 to 100	10 to 100	–	Nc1ncccc1-c1nc2ccc(-c3cnn(C(F)F)c3)nc2n1-c1ccc2c(c1)CC[C@@H]2NC(=O)c1ccc(O)c(C=O)c1 [Example 61, N-[(1S)-5-[2-(2-aminopyridin-3-yl)-5-[1-(difluoromethyl)pyrazol-4-yl]imidazo[4,5-b]pyridin-3-yl]-2,3-dihydro-1H-inden-1-yl]-3-formyl-4-hydroxybenzamide]
10 to 100	100 to 2000	10 to 100	< 10	–	Nc1ncccc1-c1nc2ccc(-c3cnccn3)nc2n1-c1ccc2c(c1)CC[C@@H]2NC(=O)c1ccc(O)c(C=O)c1 [Example 29, N-[(1S)-5-[2-(2-aminopyridin-3-yl)-5-(pyrazin-2-yl)imidazo[4,5-b]pyridin-3-yl]-2,3-dihydro-1H-inden-1-yl]-3-formyl-4-hydroxybenzamide]
10 to 100	100 to 2000	10 to 100	< 10	–	Nc1ncccc1-c1nc2ccc(-n3ncc4c3COC4)nc2n1-c1ccc2c(c1)CC[C@@H]2NC(=O)c1ccc(O)c(C=O)c1 [Example 206, N-[(1S)-5-[2-(2-aminopyridin-3-yl)-5-{4H,6H-furo[3,4-c]pyrazol-1-yl}imidazo[4,5-b]pyridin-3-yl]-2,3-dihydro-1H-inden-1-yl]-3-formyl-4-hydroxybenzamide]
10 to 100	100 to 2000	≥ 2000	10 to 100	–	C#Cc1c(C(=O)N[C@H]2CCc3cc(-n4c(-c5cccnc5N)nc5ccc(-n6cccn6)nc54)ccc32)ccc(O)c1C=O [Example 112, N-[(1S)-5-[2-(2-aminopyridin-3-yl)-5-(pyrazol-1-yl)imidazo[4,5-b]pyridin-3-yl]-2,3-dihydro-1H-inden-1-yl]-2-ethynyl-3-formyl-4-hydroxybenzamide]
10 to 100	100 to 2000	10 to 100	10 to 100	–	Nc1ncccc1-c1nc2ccc(-n3cccn3)nc2n1-c1ccc2c(c1)CC[C@@H]2NC(=O)c1cc(C=O)c(O)cc1F [Example 105, (S)—N-(5-(2-(2-aminopyridin-3-yl)-5-(1H-pyrazol-1-yl)-3H-imidazo[4,5-b]pyridin-3-yl)-2,3-dihydro-1H-inden-1-yl)-2-fluoro-5-formyl-4-hydroxybenzamide]
< 10	10 to 100	10 to 100	< 10	–	Nc1ncccc1-c1nc2ccc(-c3ccccc3)nc2n1-c1ccc2c(c1)CC[C@@H]2NC(=O)c1ccc(NC(=O)C(F)F)c(C=O)c1 [Example 52, N-[(1S)-5-[2-(2-aminopyridin-3-yl)-5-phenylimidazo[4,5-b]pyridin-3-yl]-2,3-dihydro-1H-inden-1-yl]-4-(2,2-difluoroacetamido)-3-formylbenzamide]
